Data reported in patent US8148391B2 (Cephalon, Inc., priority 2006, dated 2012).
pIC50: −log10 of the molar value.

Tests used:
[1] = biological target: T1, baculovirus-expressed ALK (Homo sapiens, UniProt Q9UM73); test: ALK Kinase Assay (ELISA-type, time-resolved fluorescence); assay type: biochemical; details: ALK kinase inhibition, 1 μM ATP (Km level); read-out: ALK Activity
T1 construct: host or cells: baculovirus expression system
Outline: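 Plates coated with phospholipase C-γ substrate (10 μg/mL in TBS); reaction started with 30 ng/ml ALK and run 15 min at 37° C. Phosphorylated substrate detected with Eu-N1-labeled PT66 antibody. IC50 from sigmoidal variable-slope fit of percent inhibition vs log concentration.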

[2] = biological target: T2, c-Met (cytoplasmic domain) (Homo sapiens, UniProt P08581); test: c-Met Kinase Assay (same methods as for ALK, with modifications); assay type: biochemical; details: c-Met kinase inhibition, 1 μM ATP (Km level); read-out: cMet Activity
T2 construct: 10 ng/mL c-Met (cytoplasmic domain, Invitrogen Corporation #PV3143); purchased Invitrogen Corporation PV3143
T2 sequence (P08581 956-1390 limits assumed): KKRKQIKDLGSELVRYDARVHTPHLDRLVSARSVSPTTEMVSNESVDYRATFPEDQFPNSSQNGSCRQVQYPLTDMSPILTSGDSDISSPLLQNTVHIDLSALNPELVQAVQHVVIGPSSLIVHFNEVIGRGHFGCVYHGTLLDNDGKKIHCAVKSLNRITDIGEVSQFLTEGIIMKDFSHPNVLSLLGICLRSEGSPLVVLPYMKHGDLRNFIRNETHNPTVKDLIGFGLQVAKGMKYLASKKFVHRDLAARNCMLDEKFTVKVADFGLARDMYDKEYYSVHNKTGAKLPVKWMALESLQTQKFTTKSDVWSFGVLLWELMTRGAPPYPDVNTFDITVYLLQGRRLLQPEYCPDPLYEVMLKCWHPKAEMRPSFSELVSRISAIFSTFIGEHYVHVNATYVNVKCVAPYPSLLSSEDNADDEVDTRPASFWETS
Outline: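 Europium-labeled PT66 antibody (Eu-N1) detects substrate phosphorylation on wells coated with phospholipase C-γ at 10 μg/mL. The kinase, the cytoplasmic domain of c-Met at 10 ng/mL, starts the reaction, which proceeds 15 minutes at 37° C.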

T1 sequence (Q9UM73 19-1620): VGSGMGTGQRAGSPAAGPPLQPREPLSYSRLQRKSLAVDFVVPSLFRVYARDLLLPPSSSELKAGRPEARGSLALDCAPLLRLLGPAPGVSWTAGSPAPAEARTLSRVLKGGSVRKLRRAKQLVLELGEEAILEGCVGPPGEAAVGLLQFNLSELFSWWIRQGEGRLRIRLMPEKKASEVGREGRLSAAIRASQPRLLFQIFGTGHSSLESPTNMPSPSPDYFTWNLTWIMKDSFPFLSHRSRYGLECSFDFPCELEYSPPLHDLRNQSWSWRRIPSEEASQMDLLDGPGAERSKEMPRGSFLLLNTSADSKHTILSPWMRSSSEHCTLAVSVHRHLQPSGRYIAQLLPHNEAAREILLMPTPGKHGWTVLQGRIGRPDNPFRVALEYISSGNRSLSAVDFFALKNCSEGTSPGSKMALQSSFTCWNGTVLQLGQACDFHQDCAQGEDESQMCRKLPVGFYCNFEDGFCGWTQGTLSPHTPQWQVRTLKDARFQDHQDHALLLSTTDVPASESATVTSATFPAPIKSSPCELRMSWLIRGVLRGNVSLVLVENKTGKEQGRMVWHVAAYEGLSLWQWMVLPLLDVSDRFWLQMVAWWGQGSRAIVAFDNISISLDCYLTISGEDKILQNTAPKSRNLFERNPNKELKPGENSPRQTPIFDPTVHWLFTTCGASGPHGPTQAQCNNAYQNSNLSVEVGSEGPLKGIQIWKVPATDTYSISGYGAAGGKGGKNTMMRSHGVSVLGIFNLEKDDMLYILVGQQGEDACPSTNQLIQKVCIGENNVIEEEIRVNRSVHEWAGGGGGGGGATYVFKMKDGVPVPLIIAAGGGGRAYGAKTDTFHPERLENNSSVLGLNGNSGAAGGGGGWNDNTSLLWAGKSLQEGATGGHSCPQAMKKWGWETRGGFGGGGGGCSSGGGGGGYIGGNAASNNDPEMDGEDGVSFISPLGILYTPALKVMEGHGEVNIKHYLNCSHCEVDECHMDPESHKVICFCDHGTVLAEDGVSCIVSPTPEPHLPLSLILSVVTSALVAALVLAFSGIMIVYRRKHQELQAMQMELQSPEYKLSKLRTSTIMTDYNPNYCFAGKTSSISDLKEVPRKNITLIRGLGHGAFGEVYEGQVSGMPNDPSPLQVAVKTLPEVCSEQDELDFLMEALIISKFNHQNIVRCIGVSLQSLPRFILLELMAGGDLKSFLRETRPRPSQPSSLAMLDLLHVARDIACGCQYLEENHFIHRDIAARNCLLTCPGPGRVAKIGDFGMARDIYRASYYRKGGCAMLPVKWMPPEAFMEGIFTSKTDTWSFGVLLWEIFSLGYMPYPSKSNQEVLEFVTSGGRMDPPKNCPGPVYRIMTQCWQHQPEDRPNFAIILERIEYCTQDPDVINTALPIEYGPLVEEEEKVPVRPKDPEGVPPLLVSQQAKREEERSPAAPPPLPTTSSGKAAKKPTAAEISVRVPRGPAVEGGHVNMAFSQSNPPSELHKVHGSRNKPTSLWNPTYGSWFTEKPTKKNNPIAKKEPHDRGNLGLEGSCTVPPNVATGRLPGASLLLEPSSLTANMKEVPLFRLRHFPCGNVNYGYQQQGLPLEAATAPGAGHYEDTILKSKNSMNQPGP

Row | SMILES | pIC50 [1] | pIC50 [2]
1 | CCN1CCc2ccc(Nc3ncc(Cl)c(N[C@@H]4c5ccccc5C[C@@H]4O)n3)cc2CC1 [Example 235, (1R,2S)-1-[5-Chloro-2-(3-ethyl-2,3,4,5-tetrahydro-1H-benzo[d]azepin-7-ylamino)-pyrimidin-4-ylamino]-indan-2-ol] | > 7.00 | 5.00 to 6.00
2 | CNC(=O)c1ccccc1Nc1nc(Nc2cccc3c2CN(C(C)=O)CCN3)ncc1Cl [Example 236, 2-[2-(4-Acetyl-2,3,4,5-tetrahydro-1H-benzo[e][1,4]diazepin-6-ylamino)-5-chloro-pyrimidin-4-ylamino]-N-methyl-benzamide] | 6.00 to 7.00 | 5.00 to 6.00
3 | CNC(=O)c1ccccc1Nc1nc(Nc2cc3c(cc2OC)CCN(CCOC)CC3)ncc1Cl [Example 241, 2-{5-Chloro-2-[8-methoxy-3-(2-methoxy-ethyl)-2,3,4,5-tetrahydro-1H-benzo[d]azepin-7-ylamino]-pyrimidin-4-ylamino}-N-methyl-benzamide] | > 7.00 | 6.00 to 7.00
4 | COCCN1CCc2cc(Nc3ncc(Cl)c(Nc4ccccc4NS(C)(=O)=O)n3)c(OC)cc2CC1 [Example 242, N-(2-{5-Chloro-2-[8-methoxy-3-(2-methoxy-ethyl)-2,3,4,5-tetrahydro-1H-benzo[d]azepin-7-ylamino]-pyrimidin-4-ylamino}-phenyl)-methanesulfonamide] | > 7.00 | 5.00 to 6.00
5 | COCCN1CCc2cc(Nc3ncc(Cl)c(Nc4cc(Cl)ccc4OC)n3)c(OC)cc2CC1 [Example 243, 5-Chloro-N*4*-(5-chloro-2-methoxy-phenyl)-N*2*-[8-methoxy-3-(2-methoxy-ethyl)-2,3,4,5-tetrahydro-1H-benzo[d]azepin-7-yl]-pyrimidine-2,4-diamine] | > 7.00 | < 5.00
6 | COCCN1CCc2ccc(OC)c(Nc3ncc(Cl)c(N[C@@H]4CCCC[C@H]4NS(C)(=O)=O)n3)c2CC1 [Example 244, N-((1R,2R)-2-{5-Chloro-2-[7-methoxy-3-(2-methoxy-ethyl)-2,3,4,5-tetrahydro-1H-benzo[d]azepin-6-ylamino]-pyrimidin-4-ylamino}-cyclohexyl)-methanesulfonamide] | 5.00 to 6.00 | < 5.00
7 | COCCN1CCc2ccc(OC)c(Nc3ncc(Cl)c(Nc4ccc(N5CCOCC5)cc4OC)n3)c2CC1 [Example 246, 5-Chloro-N(2)-[7-methoxy-3-(2-methoxy-ethyl)-2,3,4,5-tetrahydro-1H-benzo[d]azepin-6-yl]-N(4)-(2-methoxy-4-morpholin-4-yl-phenyl)-pyrimidine-2,4-diamine] | 5.00 to 6.00 | < 5.00
8 | COc1cc2c(cc1Nc1ncc(Cl)c(N[C@@H]3CCCC[C@H]3NS(C)(=O)=O)n1)CCN(C(=O)C(F)(F)F)CC2 [Example 247, N-((1R,2R)-2-{5-Chloro-2-[8-methoxy-3-(2,2,2-trifluoro-acetyl)-2,3,4,5-tetrahydro-1H-benzo[d]azepin-7-ylamino]-pyrimidin-4-ylamino}-cyclohexyl)-methanesulfonamide] | > 7.00 | < 5.00
9 | COc1cc2c(cc1Nc1ncc(Cl)c(N[C@@H]3CCCC[C@H]3NS(C)(=O)=O)n1)CCN(CC(F)(F)F)CC2 [Example 248, N-((1R,2R)-2-{5-Chloro-2-[8-methoxy-3-(2,2,2-trifluoro-ethyl)-2,3,4,5-tetrahydro-1H-benzo[d]azepin-7-ylamino]-pyrimidin-4-ylamino}-cyclohexyl)-methanesulfonamide] | > 7.00 | < 5.00
10 | COc1cc2c(cc1Nc1ncc(Cl)c(Nc3ccc(N4CCOCC4)cc3OC)n1)CCN(CC(F)(F)F)CC2 [Example 249, 5-Chloro-N*4*-(2-methoxy-4-morpholin-4-yl-phenyl)-N*2*-[8-methoxy-3-(2,2,2-trifluoro-ethyl)-2,3,4,5-tetrahydro-1H-benzo[d]azepin-7-yl]-pyrimidine-2,4-diamine] | > 7.00 | < 5.00
11 | CCN1CCc2cc(Nc3ncc(Cl)c(N[C@@H]4CCCC[C@H]4NS(C)(=O)=O)n3)c(OC)cc2CC1=O [Example 251, N-{(1R,2R)-2-[5-Chloro-2-(3-ethyl-8-methoxy-2-oxo-2,3,4,5-tetrahydro-1H-benzo[d]azepin-7-ylamino)-pyrimidin-4-ylamino]-cyclohexyl}-methanesulfonamide] | > 7.00 | < 5.00
12 | CCN1CCc2cc(Nc3ncc(Cl)c(NC4C5C=CC(C5)C4C(N)=O)n3)c(OC)cc2CC1=O (stereo not drawn) [Example 252, (2-exo,3-exo)-3-[5-Chloro-2-(3-ethyl-8-methoxy-2-oxo-2,3,4,5-tetrahydro-1H-benzo[d]azepin-7-ylamino)-pyrimidin-4-ylamino]-bicyclo[2.2.1]hept-5-ene-2-carboxylic acid amide] | > 7.00 | < 5.00
13 | CCN1CCc2cc(Nc3ncc(Cl)c(Nc4ccccc4C(=O)NC)n3)c(OC)cc2CC1=O [Example 253, 2-[5-Chloro-2-(3-ethyl-8-methoxy-2-oxo-2,3,4,5-tetrahydro-1H-benzo[d]azepin-7-ylamino)-pyrimidin-4-ylamino]-N-methyl-benzamide] | > 7.00 | 5.00 to 6.00
14 | CCN1CCc2cc(Nc3ncc(Cl)c(Nc4ccc(N5CCOCC5)cc4OC)n3)c(OC)cc2CC1=O [Example 254, 7-[5-Chloro-4-(2-methoxy-4-morpholin-4-yl-phenylamino)-pyrimidin-2-ylamino]-3-ethyl-8-methoxy-1,3,4,5-tetrahydro-benzo[d]azepin-2-one] | > 7.00 | < 5.00
15 | CCNC(=O)c1ccccc1Nc1nc(Nc2cc3c(cc2OC)CC(=O)N(CC)CC3)ncc1Cl [Example 255, 2-[5-Chloro-2-(3-ethyl-8-methoxy-2-oxo-2,3,4,5-tetrahydro-1H-benzo[d]azepin-7-ylamino)-pyrimidin-4-ylamino]-N-ethyl-benzamide] | > 7.00 | < 5.00
16 | COc1cc2c(cc1Nc1ncc(Cl)c(N[C@@H]3CCCC[C@H]3NS(C)(=O)=O)n1)CCN(CCNC(C)=O)CC2 [Example 256, N-(2-{7-[5-Chloro-4-((1R,2R)-2-methanesulfonylamino-cyclohexylamino)-pyrimidin-2-ylamino]-8-methoxy-1,2,4,5-tetrahydro-benzo[d]azepin-3-yl}-ethyl)-acetamide] | > 7.00 | < 5.00
17 | COc1cc2c(cc1Nc1ncc(Cl)c(Nc3ccc(N4CCOCC4)cc3OC)n1)CCN(CCNC(C)=O)CC2 [Example 257, N-(2-{7-[5-Chloro-4-(2-methoxy-4-morpholin-4-yl-phenylamino)-pyrimidin-2-ylamino]-8-methoxy-1,2,4,5-tetrahydro-benzo[d]azepin-3-yl}-ethyl)-acetamide] | > 7.00 | < 5.00
18 | COc1cc2c(cc1Nc1ncc(Cl)c(N[C@@H]3CCCC[C@H]3NS(C)(=O)=O)n1)CCN(CC(=O)N(C)C)CC2 [Example 258, 2-{7-[5-Chloro-4-((1R,2R)-2-methanesulfonylamino-cyclohexylamino)-pyrimidin-2-ylamino]-8-methoxy-1,2,4,5-tetrahydro-benzo[d]azepin-3-yl}-N,N-dimethyl-acetamide] | > 7.00 | < 5.00
19 | CNC(=O)c1ccccc1Nc1nc(Nc2cc3c(cc2OC)CCN(CC(=O)N(C)C)CC3)ncc1Cl [Example 259, 2-[5-Chloro-2-(3-dimethylcarbamoylmethyl-8-methoxy-2,3,4,5-tetrahydro-1H-benzo[d]azepin-7-ylamino)-pyrimidin-4-ylamino]-N-methyl-benzamide] | > 7.00 | 6.00 to 7.00
20 | COc1cc2c(cc1Nc1ncc(Cl)c(NC3C4C=CC(C4)C3C(N)=O)n1)CCN(CC(=O)N(C)C)CC2 (stereo not drawn) [Example 260, (2-exo,3-exo)-3-[5-Chloro-2-(3-dimethylcarbamoylmethyl-8-methoxy-2,3,4,5-tetrahydro-1H-benzo[d]azepin-7-ylamino)-pyrimidin-4-ylamino]-bicyclo[2.2.1]hept-5-ene-2-carboxylic acid amide] | > 7.00 | < 5.00
21 | CCNC(=O)c1ccccc1Nc1nc(Nc2cc3c(cc2OC)CCN(CC(=O)N(C)C)CC3)ncc1Cl [Example 262, 2-[5-Chloro-2-(3-dimethylcarbamoylmethyl-8-methoxy-2,3,4,5-tetrahydro-1H-benzo[d]azepin-7-ylamino)-pyrimidin-4-ylamino]-N-ethyl-benzamide] | > 7.00 | 5.00 to 6.00
22 | COc1cc2c(cc1Nc1ncc(Cl)c(N[C@@H]3CCCC[C@H]3NS(C)(=O)=O)n1)CCNC(=O)C2 [Example 263, N-{(1R,2R)-2-[5-Chloro-2-(8-methoxy-2-oxo-2,3,4,5-tetrahydro-1H-benzo[d]azepin-7-ylamino)-pyrimidin-4-ylamino]-cyclohexyl}-methanesulfonamide] | > 7.00 | < 5.00
23 | CNC(=O)c1ccccc1Nc1nc(Nc2cc3c(cc2OC)CC(=O)NCC3)ncc1Cl [Example 264, 2-[5-Chloro-2-(8-methoxy-2-oxo-2,3,4,5-tetrahydro-1H-benzo[d]azepin-7-ylamino)-pyrimidin-4-ylamino]-N-methyl-benzamide] | > 7.00 | 5.00 to 6.00
24 | CCNC(=O)c1ccccc1Nc1nc(Nc2cc3c(cc2OC)CC(=O)NCC3)ncc1Cl [Example 265, 2-[5-Chloro-2-(8-methoxy-2-oxo-2,3,4,5-tetrahydro-1H-benzo[d]azepin-7-ylamino)-pyrimidin-4-ylamino]-N-ethyl-benzamide] | > 7.00 | 6.00 to 7.00
25 | CCN1CC2CCC(C1)c1cc(Nc3ncc(Cl)c(Nc4ccccc4C(=O)NC)n3)ccc12 (centres unmarked) [Example 271, 2-[5-Chloro-2-(10-ethyl-10-aza-tricyclo[6.3.2.0*2,7*]trideca-2,4,6-trien-4-ylamino)-pyrimidin-4-ylamino]-N-methyl-benzamide] | > 7.00 | > 7.00
